Results as given in patent US20240336577A1, “PYRAZINE COMPOUND, AND METHOD OF PREPARATION AND USE THEREOF” (SHENZHEN OLIVE BIOPHARMACEUTICALS CO., LTD, priority 2020, published 2024).

Tests used:
db/db mice [1] = assay: Biochemical and metabolic indicators in db/db mice, 90 d administration; format: in vivo; conditions: once/d 90 d, Losartan 15 mg/kg/d, TMP 5.0 mg/kg, OLB-1 2.31 mg/kg, OLB-2 2.3 mg/kg, mean±SEM, n=6
db/db mice [2] = assay: Glucose and lipid metabolism in db/db mice, 56 d administration; format: in vivo; conditions: once/d 56 d, TMP 5.0 mg/kg, mean±SEM, n=6; for Creatinine / Total cholesterol / Triglyceride / Urea: Losartan 10 mg/kg; for Creatinine / Total cholesterol / Triglyceride / Urea / Glucose determination / High-density lipoprotein cholesterol / Low-density lipoprotein cholesterol: OLB-1/OLB-2 13.32 mg/kg; for Glycated hemoglobin / Glucose determination / High-density lipoprotein cholesterol / Low-density lipoprotein cholesterol: metformin 225 mg/kg/d; for Glycated hemoglobin: OLB-1/OLB-2 13.32 mg/kg (0.037 mmol/kg)
Experimental: Mice of a normal control group and model mice were given normal saline 10 ml/kg/d, metformin hydrochloride enteric-coated tablets 225 mg/kg/d, Losartan 10 mg/kg, TMP (5.0 mg/kg, 0.037 mmol/kg), and OLB-1 and OLB-2 (13.32 mg/kg, 0.037 mmol/kg), at a volume of 10 mL/kg, once/d, for continuous administration of 56 d, blood lipids and blood glucose related indexes were measured after blood collection. Data were presented as mean±SEM; n=6 per group. One-way ANOVA and multiple range test were adopted to show differences between the two groups. a, p<0.05 vs. db/db group; c, p<0.001 vs. db/db group.

[3] = test system: SH—SY5Y neuroblastoma cells; assay: LPS-induced inflammatory factors and oxidative stress-related proteins, ELISA kit; format: cell-based; conditions: 1 μg/mL LPS 24 h, mean±SEM, n=8; for TNF-alpha: differentiated SH-SY5Y, supernatant
Experimental: The SH—SY5Y cells were recovered and cultured, and the cells in the logarithmic growth phase were taken. After 24 h of incubation, SH—SY5Y neuroblastoma cells were treated with 1 μM all-trans retinoic acid to induce differentiation, and then inoculated into a 6-well culture dish for 24 h of incubation. The medium was treated with chemicals feed at 0.2 μM (L) or 1 μM (H) and 1 μg/mL LPS for 24 h, a supernatant medium was aspirated, and changes of inflammatory factors and oxidative stress-related proteins were measured by an ELISA kit. Data were presented as mean±SEM; n=8 per group. One-way ANOVA and multiple range test were adopted to show differences between the two groups. a, p<0.05 vs. LPS group; b, p<0.01 vs. LPS group; c, p<0.001 vs. LPS group.

[4] = test system: 6-OHDA Parkinson's disease rats; assay: APO-induced rotations in 6-OHDA Parkinson's disease rats; format: in vivo; conditions: APO-induced 6-OHDA rats, 2 weeks of treatment; different dosages of OLB-1, OLB-2; levodopa 25 mg/kg; FIG. 8
Excerpt: There is no rotation in a sham-operated group, and there is no significant difference between the groups injected with 6-OHDA, and there are about 180 rotations. […] Data were presented as mean±SEM; n=9-10 per group. One-way ANOVA and multiple range test were adopted to show differences between the two groups. *p<0.05, **p<0.01 vs. before 6-OHDA group.

[5] = test system: ALS (SOD-G93A) transgenic mice; assay: Pole climbing test in ALS transgenic mice; format: in vivo; conditions: different dosages of OLB-1, OLB-2, riluzole 5 mg/kg, FIG. 6
Excerpt: The pole climbing test is generally used to evaluate a motor coordination ability and motor delay of the limbs in mice. A homemade wooden pole about 50 cm long and about 1 cm in diameter was wrapped with medical gauze to increase friction of the wooden pole. The wooden pole was put vertically on a horizontal table, the mouse tail was grabbed such that the mouse head was facing down, with limbs grabbing a top of the pole; after releasing the mouse tail, timing was started, and it was ensured that the mouse crawled downward without external force, and the time was recorded for the mouse to climb from the top of the pole to a bottom platform (a standard was that mouse hind limbs were landed on the ground). […] An average of the three pole climbing times of mice was calculated as a final pole climbing time. […] Data were presented as mean±SEM; n=10 per group. One-way ANOVA and multiple range test were adopted to show differences between the two groups. ***p<0.001 vs. WT (normal control) group; #p<0.05, ##p<0.01 vs. ALS (SOD-G93A) group.

[6] = test system: ALS (SOD-G93A) transgenic mice; assay: Limb grip force test in ALS transgenic mice; format: in vivo; conditions: different dosages of OLB-1, OLB-2, riluzole 5 mg/kg, FIG. 7
Experimental: The limb grip force test is used directly to assess muscle strength in mice. […] After the start of administration, the grip force of the mice was tested every two weeks, and the measurement was repeated three times for each mouse, and the maximum among the three results was taken as a maximum grip force of the mice. […] Data were presented as mean±SEM; n=10 per group. One-way ANOVA and multiple range test show differences between the two groups. **p<0.01, ***p<0.001 vs. WT (normal control) group; #p<0.05, ##p<0.01 vs. ALS (SOD-G93A) group.

| Structure (SMILES) | Creatinine (db/db mice [1]) | Urea (db/db mice [1]) | Urine albumin/creatinine (db/db mice [1]) | Creatinine (db/db mice [2]) | Total cholesterol (db/db mice [2]) | Triglyceride (db/db mice [2]) | Urea (db/db mice [2]) | Glycated hemoglobin (db/db mice [2]) | Glucose determination (db/db mice [2]) | High-density lipoprotein cholesterol (db/db mice [2]) | Low-density lipoprotein cholesterol (db/db mice [2]) | other results |
| --- | --- | --- | --- | --- | --- | --- | --- | --- | --- | --- | --- | --- |
| CCCCc1nc(Cl)c(CO)n1Cc1ccc(-c2ccccc2-c2nn[nH]n2)cc1 [Losartan, reference compound] | 42.12 ± 1.72(c) μmol/L | 7.23 ± 0.51(c) mmol/L | 522.59 ± 103.42(c) mg/g | 42.12 ± 1.72(c) μmol/L | 6.76 ± 0.46(c) mM | 9.68 ± 0.37(c) mg/dL | 7.23 ± 0.51(c) mmol/L |  |  |  |  |  |
| Cc1nc(C)c(C)nc1C [TMP, tetramethylpyrazine, reference compound] | 52.5 ± 3.76 µmol/L | 11.55 ± 0.59 ^ mmol/L | 687.35 ± 79.04 ^ mg/g | 52.5 ± 3.76 µmol/L | 10.96 ± 1.38 ^ mM | 12.83 ± 1.37 ^ mg/dL | 11.55 ± 0.59 ^ mmol/L | 917.31 ± 57.43 ^ nmol/L | 37.94 ± 3.11 ^ mM | 2.49 ± 0.16 ^ mM | 0.68 ± 0.04 ^ mM | GSH-Px ([3]; compound 0.2 μM (L)): 5.96 ± 0.74 µmol/mg; IL1 ([3]; compound 0.2 μM (L)): 13.26 ± 1.31 pg/mL; IL6 ([3]; compound 0.2 μM (L)): 14.12 ± 1.46 pg/mL; MDA ([3]; compound 0.2 μM (L)): 23.34 ± 1.71 nmol/mg; SOD ([3]; compound 0.2 μM (L)): 9.57 ± 0.61 nU/ml; GSH-Px ([3]; compound 1 μM (H)): 6.90 ± 0.87 µmol/mg; IL1 ([3]; compound 1 μM (H)): 13.53 ± 1.74 pg/mL; IL6 ([3]; compound 1 μM (H)): 12.69 ± 1.85 pg/mL; MDA ([3]; compound 1 μM (H)): 22.94 ± 1.33 nmol/mg; SOD ([3]; compound 1 μM (H)): 8.93 ± 0.47 nU/ml; TNF-alpha ([3]; compound 0.2 μM (L)): 12.22 ± 1.28 pg/mL; TNF-alpha ([3]; compound 1 μM (H)): 12.64 ± 1.70 pg/mL |
| N[C@@H](Cc1ccc(O)c(O)c1)C(=O)O [levodopa, reference compound] |  |  |  |  |  |  |  |  |  |  |  | number of rotations [4]: effectively reduce the number of rotations |
| CN(C)C(=N)N=C(N)N [metformin, reference compound] |  |  |  |  |  |  |  | 628.52 ± 50.59(c) nmol/L | 24.01 ± 2.38(c) mM | 2.19 ± 0.12(a) mM | 0.59 ± 0.02(c) mM |  |
| Nc1nc2ccc(OC(F)(F)F)cc2s1 [riluzole, reference compound] |  |  |  |  |  |  |  |  |  |  |  | pole climbing time / symptoms of bradykinesia [5]: significantly improve the symptoms of bradykinesia; limb grip force [6]: effectively increase the limb force |
